Assay: shake flask on a mixture of 185; loss from the water phase only; LC-Orbitrap peak areas
Conditions: room

| SMILES | log partition 1-octanol / HPLC water, unbuffered, traces of methanol / DMSO | log partition butyl acetate / HPLC water, unbuffered, traces of methanol / DMSO | log partition chloroform / HPLC water, unbuffered, traces of methanol / DMSO | log partition cyclohexane / HPLC water, unbuffered, traces of methanol / DMSO | log partition dichloromethane / HPLC water, unbuffered, traces of methanol / DMSO | log partition n-hexane / HPLC water, unbuffered, traces of methanol / DMSO | log partition n-octane / HPLC water, unbuffered, traces of methanol / DMSO | log partition n-undecane / HPLC water, unbuffered, traces of methanol / DMSO | log partition oleylalcohol / HPLC water, unbuffered, traces of methanol / DMSO | log partition toluene / HPLC water, unbuffered, traces of methanol / DMSO |
| --- | --- | --- | --- | --- | --- | --- | --- | --- | --- | --- |
| c1ccc(CCCc2ccncc2)cc1 | 0.08604 log10 | -0.4137 log10 | -0.0585 log10 | -0.2421 log10 | 0.1807 log10 | -0.1192 log10 | -0.1298 log10 | -0.4578 log10 | -0.2233 log10 | -0.2508 log10 |
| CN1COCN(Cc2cnc(Cl)s2)C1=N[N+](=O)[O-] | -0.1952 log10 | 0.2434 log10 | 1.267 log10 | -1.812 log10 | 1.869 log10 | -1.862 log10 | -1.749 log10 | -1.056 log10 | -0.5161 log10 | -0.2331 log10 |
| COc1ccccc1/C=C/C=O | 1.387 log10 | 0.7851 log10 | 0.6596 log10 | -0.3102 log10 | 0.6345 log10 | 0.495 log10 | -0.2565 log10 | -0.1964 log10 | -0.5567 log10 | 0.2589 log10 |
| CCCCCCC(O)CCCCCCCCCCC(=O)OC (centres unmarked) | -0.3995 log10 | -0.5958 log10 | -0.2735 log10 | -0.4754 log10 | -1.47 log10 | -1.341 log10 | -1.53 log10 | -1.718 log10 | -0.7143 log10 | -1.19 log10 |
| CCCCC(O)(Cn1cncn1)c1ccc(Cl)cc1Cl (centres unmarked) | 3.35 log10 | 5.299 log10 | 1.307 log10 | 3.351 log10 | 4.823 log10 | 2.027 log10 | 2.104 log10 | 2.029 log10 | 3.139 log10 | 4.525 log10 |
| N#CC(c1ccccc1)c1ccccc1 | -0.3597 log10 | 0.2978 log10 | -0.002518 log10 | -0.2823 log10 | 0.1658 log10 | -0.257 log10 | -0.2917 log10 | -0.816 log10 | 0.1292 log10 | 0.1711 log10 |
| C=C(C)C(=O)OCCOCCOC(=O)C(=C)C | 0.2475 log10 | -0.01795 log10 | 0.3491 log10 | -0.1638 log10 | 0.4156 log10 | -0.1437 log10 | -0.3242 log10 | -0.3846 log10 | 0.1237 log10 | -0.03291 log10 |
| CCCCc1ccc(O)cc1 | -0.1262 log10 | -0.005316 log10 | -0.1217 log10 | -0.5302 log10 | 0.2438 log10 | -0.849 log10 | -0.6939 log10 | -0.8247 log10 | -0.3004 log10 | -0.3739 log10 |
| CC(C)(C#N)Nc1nc(Cl)nc(NC2CC2)n1 | 2.353 log10 | 1.721 log10 | 2.761 log10 | -0.1053 log10 | 2.268 log10 | -0.13 log10 | 0.2329 log10 | -0.4376 log10 | 1.837 log10 | 1.234 log10 |
| COC(=O)c1ccc(C(=O)OC)c(C(=O)OC)c1 | 1.294 log10 | 0.7248 log10 | 1.573 log10 | 1.164 log10 | 1.169 log10 | 0.9609 log10 | 1.205 log10 | 0.9207 log10 | 0.6631 log10 | 1.185 log10 |
| CCCCCCCCCCCCN1CCCCCC1=O | -0.1202 log10 | -1.099 log10 | 0.3816 log10 | -0.5564 log10 | -0.008559 log10 | -0.8813 log10 | -0.4901 log10 | -0.9092 log10 | -0.7875 log10 | -0.5083 log10 |
| O=C1C=CC(=O)N1c1ccc(Cc2ccc(N3C(=O)C=CC3=O)cc2)cc1 | -0.1715 log10 | -0.4086 log10 | -0.4673 log10 | -0.523 log10 | 0.07258 log10 | -0.4156 log10 | -0.5042 log10 | -0.6476 log10 | -0.3131 log10 | 0.01296 log10 |
| CN1C(=O)CCS(=O)(=O)C1c1ccc(Cl)cc1 (centres unmarked) |  |  | 3.591 log10 |  | 5.525 log10 |  |  |  |  | 4.586 log10 |
| C=CC(=O)OCC1CC2CC1C1CCC(COC(=O)C=C)C21 (centres unmarked) | 0.2948 log10 | -0.12 log10 | 0.01457 log10 | -0.1351 log10 | 0.05615 log10 | -0.1023 log10 | -0.1158 log10 | 0.0297 log10 | 0.1091 log10 | 0.1587 log10 |
| CCOC(=O)CC(=O)c1ccccc1 | -0.2282 log10 | -0.1902 log10 | 0.1944 log10 | -1.116 log10 | -0.2025 log10 | -1.048 log10 | -1.147 log10 | -0.8216 log10 | -0.4257 log10 | -0.3454 log10 |
